In patent publication US8691837B2, “Substituted imidazo ring systems and methods” (3M Innovative Properties Company, priority 2003, dated 2014):
Where a name gives a salt, the structure may show the parent alone.

Structure (SMILES)	melting point
CCCc1nc2c(N)nc3ccccc3c2n1CCCCCCCCCCCC(=O)c1ccccc1 (as salt: hydrochloride) [Example 16, 12-(4-Amino-2-propyl-1H-imidazo[4,5-c]quinolin-1-yl)-1-phenyldodecan-1-one hydrochloride]	195 to 196 °C
CCCc1nc2c(N)nc3ccccc3c2n1CCCCCCCCCCCC(=O)N(C)OC (as salt: hydrochloride) [Example 21, 12-(4-Amino-2-propyl-1H-imidazo[4,5-c]quinolin-1-yl)-N-methoxy-N-methyldodecanamide hydrochloride]	156 to 158 °C
CCCCc1nc2c(N)nc3ccccc3c2n1CCCC(C)=O [Example 2, 5-(4-Amino-2-butyl-1H-imidazo[4,5-c]quinolin-1-yl)pentan-2-one]	173 to 176 °C
CCCCc1nc2c(N)nc3ccccc3c2n1CCCCCC(=O)c1ccccc1 [Example 4, 6-(4-Amino-2-butyl-1H-imidazo[4,5-c]quinolin-1-yl)-1-phenylhexan-1-one]	149 to 151 °C
Nc1nc2ccccc2c2c1ncn2CCCCCC(=O)c1ccccc1 [Example 5, 6-(4-Amino-1H-imidazo[4,5-c]quinolin-1-yl)-1-phenylhexan-1-one]	163 to 165 °C
Cc1nc2c(N)nc3ccccc3c2n1CCCC1(C)OCCO1 [Example 6, 2-Methyl-1-[3-(2-methyl-[1,3]dioxolan-2-yl)propyl]-1H-imidazo[4,5-c]quinolin-4-amine]	193 to 195 °C
CCc1nc2c(N)nc3ccccc3c2n1CCCC1(C)OCCO1 [Example 7, 2-Ethyl-1-[3-(2-methyl-[1,3]dioxolan-2-yl)propyl]-1H-imidazo[4,5-c]quinolin-4-amine]	195 to 196.5 °C
CCCc1nc2c(N)nc3ccccc3c2n1CCCC1(C)OCCO1 [Example 8, 1-[3-(2-Methyl-[1,3]dioxolan-2-yl)propyl]-2-propyl-1H-imidazo[4,5-c]quinolin-4-amine]	184 to 186 °C
CCCCc1nc2c(N)nc3ccccc3c2n1CCCC1(C)OCCO1 [Example 9, 2-Butyl-1-[3-(2-methyl-[1,3]dioxolan-2-yl)propyl]-1H-imidazo[4,5-c]quinolin-4-amine]	169 to 171.5 °C
CCOCc1nc2c(N)nc3ccccc3c2n1CCCC1(C)OCCO1 [Example 10, 2-Ethoxymethyl-1-[3-(2-methyl-[1,3]dioxolan-2-yl)propyl]-1H-imidazo[4,5-c]quinolin-4-amine]	150 to 152 °C
CC(=O)CCCn1c(C)nc2c(N)nc3ccccc3c21 [Example 11, 5-(4-Amino-2-methyl-1H-imidazo[4,5-c]quinolin-1-yl)pentan-2-one]	194 to 196 °C
CCc1nc2c(N)nc3ccccc3c2n1CCCC(C)=O [Example 12, 5-(4-Amino-2-ethyl-1H-imidazo[4,5-c]quinolin-1-yl)pentan-2-one]	206 to 208 °C
CCCc1nc2c(N)nc3ccccc3c2n1CCCC(C)=O [Example 13, 5-(4-Amino-2-propyl-1H-imidazo[4,5-c]quinolin-1-yl)pentan-2-one]	176 to 177 °C
CCOCc1nc2c(N)nc3ccccc3c2n1CCCC(C)=O [Example 14, 5-(4-Amino-2-ethoxymethyl-1H-imidazo[4,5-c]quinolin-1-yl)pentan-2-one]	173 to 175 °C
CCCc1nc2c(N)nc3ccccc3c2n1CCCCCC(C)=O [Example 15, 7-(4-Amino-2-propyl-1H-imidazo[4,5-c]quinolin-1-yl)heptan-2-one]	161 to 163 °C
CCCc1nc2c(N)nc3ccccc3c2n1CCCC(=O)CC(C)C [Example 17, 1-(4-Amino-2-propyl-1H-imidazo[4,5-c]quinolin-1-yl)-6-methylheptan-4-one]	136 to 138 °C
CCCCCCC(=O)CCCn1c(CCC)nc2c(N)nc3ccccc3c21 [Example 18, 1-(4-Amino-2-propyl-1H-imidazo[4,5-c]quinolin-1-yl)decan-4-one]	111 to 113 °C
CCCc1nc2c(N)nc3ccccc3c2n1CCCCCC(=O)N(C)OC [Example 19, 6-(4-Amino-2-propyl-1H-imidazo[4,5-c]quinolin-1-yl)-N-methoxy-N-methylhexanamide]	134 to 135 °C

Structure (SMILES)	melting point
CCCc1nc2c(N)nc3ccccc3c2n1CCCC(=O)N(C)OC [Example 20, 4-(4-Amino-2-propyl-1H-imidazo[4,5-c]quinolin-1-yl)-N-methoxy-N-methylbutyramide]	163 to 165 °C
Cc1nc2c(N)nc3ccccc3c2n1CC(C)(C)CC1(C)OCCO1 [Example 22, 1-[2,2-Dimethyl-3-(2-methyl-[1,3]dioxolan-2-yl)propyl]-2-methyl-1H-imidazo[4,5-c]quinolin-4-amine]	209 to 211 °C
CCCc1nc2c(N)nc3ccccc3c2n1CC(C)(C)CC1(C)OCCO1 [Example 23, 1-[2,2-Dimethyl-3-(2-methyl-[1,3]dioxolan-2-yl)propyl]-2-propyl-1H-imidazo[4,5-c]quinolin-4-amine]	186 to 188 °C
CC(=O)CC(C)(C)Cn1c(C)nc2c(N)nc3ccccc3c21 [Example 24, 5-(4-Amino-2-methyl-1H-imidazo[4,5-c]quinolin-1-yl)-4,4-dimethylpentan-2-one]	223 to 225 °C
CCCc1nc2c(N)nc3ccccc3c2n1CC(C)(C)CC(C)=O [Example 25, 5-(4-Amino-2-propyl-1H-imidazo[4,5-c]quinolin-1-yl)-4,4-dimethylpentan-2-one]	178 to 180 °C
CCCc1nc2c(N)nc3ccccc3c2n1CCC(=O)OCC [Example 26, Ethyl 3-(4-amino-2-propyl-1H-imidazo[4,5-c]quinolin-1-yl)propionate]	156 to 157 °C
CCCc1nc2c(N)nc3ccccc3c2n1CCCC(=O)OCC [Example 27, Ethyl 4-(4-amino-2-propyl-1H-imidazo[4,5-c]quinolin-1-yl)butyrate]	154 to 156 °C
CCCc1nc2c(N)nc3ccccc3c2n1CCCCCC(=O)OCC [Example 28, Ethyl 6-(4-amino-2-propyl-1H-imidazo[4,5-c]quinolin-1-yl)hexanoate]	112 to 113 °C
CCCc1nc2c(N)nc3ccccc3c2n1CC(OCC)OCC [Example 29, 1-(2,2-Diethoxyethyl)-2-propyl-1H-imidazo[4,5-c]quinolin-4-amine]	148 to 150 °C
CCCc1nc2c(N)nc3ccccc3c2n1CCC(OCC)OCC [Example 30, 1-(3,3-Diethoxypropyl)-2-propyl-1H-imidazo[4,5-c]quinolin-4-amine]	148 to 150 °C
CC(C)(Cn1cnc2c(N)nc3ccccc3c21)CC1(C)OCCO1 [Example 31, 1-[2,2-Dimethyl-3-(2-methyl[1,3]dioxolan-2-yl)propyl]-1H-imidazo[4,5-c]quinolin-4-amine]	153 to 155 °C
CC(=O)CC(C)(C)Cn1cnc2c(N)nc3ccccc3c21 [Example 32, 5-(4-Amino-1H-imidazo[4,5-c]quinolin-1-yl)-4,4-dimethylpentan-2-one]	214 to 216 °C
CCCc1nc2c(N)nc(C)c(C)c2n1CCCC(C)=O [Example 33, 5-(4-Amino-6,7-dimethyl-2-propyl-1H-imidazo[4,5-c]pyridin-1-yl)pentan-2-one]	148.5 to 149.5 °C
CCOCc1nc2c(N)nc3ccccc3c2n1CCCC(=O)OCC [Example 34, Ethyl 4-[4-amino-2-(ethoxymethyl)-1H-imidazo[4,5-c]quinolin-1-yl]butanoate]	129 to 131 °C
CCOCc1nc2c(N)nc3ccccc3c2n1CCCC(=O)N(C)OC [Example 35, 4-[4-Amino-2-(ethoxymethyl)-1H-imidazo[4,5-c]quinolin-1-yl]-N-methoxy-N-methylbutanamide]	163 to 165 °C
CCCc1nc2c(N)nc3ccccc3c2n1CCCCC(=O)N(C)OC [Example 36, 5-(4-Amino-2-propyl-1H-imidazo[4,5-c]quinolin-1-yl)-N-methoxy-N-methylpentanamide]	150 to 151 °C
CCOCc1nc2c(N)nc3ccccc3c2n1CC(=O)CC [Example 37, 1-[4-Amino-2-(ethoxymethyl)-1H-imidazo[4,5-c]quinolin-1-yl]butan-2-one]	187 to 188 °C
